Experiment [1] has as its target HLA-A*0201 molecule on T2 cells (Homo sapiens, UniProt P04439, D140Y/D185E/D98H/E176V/E277Q/G131W/G231S/I119V/I121R/I166T/I218V/L300P/L318F/N151K/N90K/P208A/P217A/Q86G/Q94H/R138H/R169H/T345S). Briefly: Peptide-binding assay (HLA stabilization assay, T2 cell line). The settings on record: 20 μg/mL peptide, 20 hours, FI more than 1 = strong binding, Fig. S2; for fluorescence index (FI) value: T2 cells 2 × 10^5/well, serum-free RPMI, 37 °C, FACS, PE anti-HLA-A 02 (BB7.2), triplicate. In kind it is cell-based. How it is done:
The efficiency of the shortlisted epitopes to stabilize the HLA-A 02 allele was measured by HLA stabilization assay using TAP-deficient human cell line that express HLA-A2 (T2 cell line) according to our previously described methodology with certain modifications. Briefly, T2 cells (2 × 10^5/well) were cultured with 20 μg/mL of individual peptides in serum-free RPMI medium for 20 hours at 37 °C in 5% CO2. The HLA stabilization assay was performed in triplicate for each peptide. The tumor HLA A2 bound 10mer peptide was used as positive control. The expression of HLA-A 02 on T2 cells was measured by PE-conjugated mouse anti-human HLA-A 02 monoclonal antibody (clone: BB7.2; Pharmingen), the samples were acquired by FACS Calibur and analyzed by CellQuest software (BD Biosciences). The binding affinity of each peptide was measured by a fluorescence index: FI = (mean PE fluorescence with the given peptide−mean PE fluorescence without peptide)/(mean […] fluorescence without peptide). The epitope with a fluorescence index (FI) more than 1 was considered as strong binding affinity epitopes.

For experiment [2], the system named is PBMCs from HLA A2 negative VL treated subjects. Put plainly: Intracellular IFN-γ from CD8+ T cells (FACS). The class given is cell-based, human. Conditions: six HLA A2 negative subjects, overnight plus 6 h brefeldin-A. How it is done: To evaluate the ability of the selected epitopes to trigger the immune cells by CD8+ T cell dependent manner, PBMCs (1 × 10^6/ml) from five HLAA2 positive VL treated subjects were incubated for overnight in the presence or absence of peptide at 37 °C and 5% CO2. Additionally, six HLA A2 negative VL treated subjects were also considered for this study. Stimulation with SLA was run in parallel to all experiments as described previously. After overnight incubation followed by 6 h incubation with brefeldin-A (1 mg/ml), cells were harvested, washed with PBS, and stained with anti-CD3-PerCP (BD Biosciences) and anti-CD8-FITC(BD Biosciences) conjugated antibodies for 30 min at 4 °C. The cells were then washed with stain buffer, fixed and permeabilized Cytofix-Cytoperm buffer (BD Biosciences) for 20 minutes at 4 °C. The intracellular level of IFN-γ was stained with anti-IFN-γ PE-conjugated antibody (BD Biosciences) for 30 minutes and washed with perm wash buffer (BD Biosciences). A logical gate set using was used to measure the co-expression of intracellular CD8+ ve IFN-γ. At least 30 000 cells were acquired for each analysis, and the results are shown in percentage gated value (% gated).

This is an account of results in publication PMC6154976, “The potential HLA Class I-restricted epitopes derived from LeIF and TSA of Leishmania donovani evoke anti-leishmania CD8+ T lymphocyte response” (Scientific Reports, 2018).

Entries after “also recorded” stand apart in the source; their conditions may differ.

As to FIIDPNGMV [P8], the “binding to / stabilization of HLA-A*0201 on T2 cells, in words” value (“binding to / stabilization” below) in experiment [1] was “relatively weakly bound”.

As to KVLTLFAEV [P5], the “intracellular CD3+ ve CD8+ ve IFN-γ” value in experiment [2] is “triggered the HLA A2-ve host immune cells by producing CD8+ IFN-γ; also recorded: triggered CD3+ ve CD8+ ve IFN-γ level; also recorded: enhanced CD3+ CD8+ IFN-γ”. In experiment [1], the “fluorescence index (FI) value” is on record as “above 2” and the “binding to / stabilization” value is “stabilized the HLA A2; also recorded: strongly bound”.

Turning to LLLAEPFPV [P4], the “intracellular CD3+ ve CD8+ ve IFN-γ” value in experiment [2] is recorded as “triggered the HLA A2-ve host immune cells by producing CD8+ IFN-γ”. Besides, in experiment [1], the “fluorescence index (FI) value” worked out at 1.81 and the “binding to / stabilization” value is listed as “stabilized the HLA A2; also recorded: strongly bound”.

For the sequence MLADKTKSI [P6], the “binding to / stabilization” value in experiment [1] is “relatively weakly bound”.

On to RLLEAFQFV [P7], for which the “intracellular CD3+ ve CD8+ ve IFN-γ” value in experiment [2] is on record as “triggered CD3+ ve CD8+ ve IFN-γ level; also recorded: enhanced CD3+ CD8+ IFN-γ”. Also, in experiment [1], the “fluorescence index (FI) value” is “above 2” and the “binding to / stabilization” value was “stabilized the HLA A2; also recorded: strongly bound”.

SLARRKLLL [P3]: the “binding to / stabilization” value in experiment [1] is “relatively weakly bound”.

As for SMDSEYAHL [P9], the “binding to / stabilization” value in experiment [1] is given as “relatively weakly bound”.

With TLDHLLVLL [P1], in experiment [2], the “intracellular CD3+ ve CD8+ ve IFN-γ” value was “triggered the HLA A2-ve host immune cells by producing CD8+ IFN-γ; also recorded: triggered CD3+ ve CD8+ ve IFN-γ level; also recorded: enhanced CD3+ CD8+ IFN-γ”. Moreover, in experiment [1], the “fluorescence index (FI) value” is given as “above 2” and the “binding to / stabilization” value is listed as “stabilized the HLA A2; also recorded: strongly bound”.

In the case of VLLEKATIL [P2], in experiment [1], the “fluorescence index (FI) value” is “above 2” and the “binding to / stabilization” value was “stabilized the HLA A2; also recorded: strongly bound”.
